According to ChEMBL document CHEMBL1151334, “Arugosin F: a new antifungal metabolite from the coprophilous fungus Ascodesmis sphaerospora” (1998):

Experiments:
Type in all cases: functional
[1] = test system: Sordaria fimicola; experiment: Antifungal activity against Sordaria fimicola NRRL 6459 at 200 ug/disk by paper disk assay
[2] = test system: Bacillus subtilis; experiment: Antibacterial activity against Bacillus subtilis ATCC 6051 at 200 ug/disk by standard disk assay; conditions: read-out: IZ
[3] = test system: Staphylococcus aureus; experiment: Antibacterial activity against Staphylococcus aureus ATCC 29213 at 200 ug/disk by standard disk assay; conditions: read-out: IZ
[4] = test system: Ascobolus; experiment: Antifungal activity against Ascobolus furfuraceus NRRL 6460 at 200 ug/disk by paper disk assay

With `Cc1cc(O)c2c(c1)C(O)Oc1cccc(O)c1C2=O` (configuration not stated) [ARUGOSIN F] the Activity [1] was 50%, the zone of inhibition at 200 µg/disc [2] was 15 mm and the zone of inhibition at 200 µg/disc [3] was 7 mm. It also gave an inhibition at 200 µg/disc [4] of 100%.

For `Cc1cc(CO)c2c(=O)c3c(O)cccc3oc2c1`, the Activity [1] was 33%, the zone of inhibition at 200 µg/disc [2] was 7 mm and the inhibition at 200 µg/disc [4] was 20%.
